US10160755B2 (Plexxikon Inc., priority 2015, dated 2018)

Experiments:
FLT3-D835Y = target: T1, FLT3-D835Y (Homo sapiens, UniProt P36888, D835Y); assay: FLT3-D835Y biochemical kinase assay (AlphaScreen)
T1 construct: purchased Invitrogen PV3967
T1 sequence (P36888 27-993 D835Y): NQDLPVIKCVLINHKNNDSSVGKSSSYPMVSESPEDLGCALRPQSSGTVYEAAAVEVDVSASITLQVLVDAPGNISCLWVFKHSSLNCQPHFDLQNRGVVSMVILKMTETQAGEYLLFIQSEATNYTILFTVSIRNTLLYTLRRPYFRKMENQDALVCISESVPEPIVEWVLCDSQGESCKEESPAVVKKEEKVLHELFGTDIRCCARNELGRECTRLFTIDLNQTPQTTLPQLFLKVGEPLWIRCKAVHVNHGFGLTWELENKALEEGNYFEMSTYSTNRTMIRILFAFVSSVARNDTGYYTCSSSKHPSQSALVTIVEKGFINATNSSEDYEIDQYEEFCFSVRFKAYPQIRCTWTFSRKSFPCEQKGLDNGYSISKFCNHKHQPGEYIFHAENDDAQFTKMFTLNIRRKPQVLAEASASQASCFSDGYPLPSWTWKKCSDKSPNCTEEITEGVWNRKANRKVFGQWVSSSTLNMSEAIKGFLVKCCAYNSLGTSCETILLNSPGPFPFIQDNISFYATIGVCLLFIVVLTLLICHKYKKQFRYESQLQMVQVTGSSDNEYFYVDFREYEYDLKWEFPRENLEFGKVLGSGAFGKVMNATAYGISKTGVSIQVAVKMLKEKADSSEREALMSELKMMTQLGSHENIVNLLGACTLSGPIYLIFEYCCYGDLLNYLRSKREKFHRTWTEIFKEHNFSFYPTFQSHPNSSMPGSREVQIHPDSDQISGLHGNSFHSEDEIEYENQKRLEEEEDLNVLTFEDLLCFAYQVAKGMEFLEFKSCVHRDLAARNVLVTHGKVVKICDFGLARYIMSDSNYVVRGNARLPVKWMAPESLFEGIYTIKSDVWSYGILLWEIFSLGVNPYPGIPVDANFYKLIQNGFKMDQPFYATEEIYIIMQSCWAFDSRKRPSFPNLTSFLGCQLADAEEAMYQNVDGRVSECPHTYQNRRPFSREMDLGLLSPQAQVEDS
Procedure, shortened: (§1)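 Compounds were tested against recombinant enzyme using AlphaScreen detection of tyrosine-phosphorylated biotin-poly(Glu4-Tyr) (30 nM final). The ATP concentration differed by construct: 10 μM for D835Y, 100 μM for ITD.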

FLT3-ITD = target: T2, FLT3-ITD (Homo sapiens, UniProt P36888); assay: FLT3-ITD biochemical kinase assay (AlphaScreen)
T2 construct: FLT3-ITD; Invitrogen #PV6190
T2 sequence (P36888 1-993): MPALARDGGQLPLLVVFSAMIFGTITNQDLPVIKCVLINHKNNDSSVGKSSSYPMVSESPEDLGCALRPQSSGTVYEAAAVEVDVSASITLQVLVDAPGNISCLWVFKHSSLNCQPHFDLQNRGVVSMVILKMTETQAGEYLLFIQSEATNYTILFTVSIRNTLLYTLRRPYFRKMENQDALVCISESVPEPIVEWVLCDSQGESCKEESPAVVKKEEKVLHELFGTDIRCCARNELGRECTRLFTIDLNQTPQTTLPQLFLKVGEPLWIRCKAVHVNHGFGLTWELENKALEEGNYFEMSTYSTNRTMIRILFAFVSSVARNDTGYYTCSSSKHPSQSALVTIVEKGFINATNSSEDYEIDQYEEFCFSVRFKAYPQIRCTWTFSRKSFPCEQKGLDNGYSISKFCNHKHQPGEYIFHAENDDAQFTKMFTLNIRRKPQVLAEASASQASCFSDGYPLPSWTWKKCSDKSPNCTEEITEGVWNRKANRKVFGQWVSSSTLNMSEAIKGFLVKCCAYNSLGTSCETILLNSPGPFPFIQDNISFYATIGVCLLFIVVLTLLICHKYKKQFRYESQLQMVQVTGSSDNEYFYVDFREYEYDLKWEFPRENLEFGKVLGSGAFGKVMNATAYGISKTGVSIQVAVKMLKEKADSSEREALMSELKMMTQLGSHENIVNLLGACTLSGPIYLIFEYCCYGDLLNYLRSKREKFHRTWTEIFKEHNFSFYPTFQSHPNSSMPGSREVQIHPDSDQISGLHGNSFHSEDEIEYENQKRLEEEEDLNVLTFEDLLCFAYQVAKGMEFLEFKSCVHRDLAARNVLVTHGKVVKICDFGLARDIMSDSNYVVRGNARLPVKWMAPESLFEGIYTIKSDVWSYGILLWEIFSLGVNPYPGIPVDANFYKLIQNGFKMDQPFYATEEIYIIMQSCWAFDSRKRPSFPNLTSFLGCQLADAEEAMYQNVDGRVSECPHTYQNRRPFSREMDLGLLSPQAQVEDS
Procedure, shortened: as §1

IC50 (FLT3-D835Y) | IC50 (FLT3-ITD) | Compound
0.0001 to 1 µM | 0.0001 to 1 µM | c1cc(N2CCCCC2)ncc1-c1cnc2[nH]cc(-c3ccc4ncn(C5CCCNC5)c4c3)c2n1 (centres unmarked) [P-348, 7-[3-(3-piperidyl)benzimidazol-5-yl]-2-[6-(1-piperidyl)-3-pyridyl]-5H-pyrrolo[2,3-b]pyrazine]
0.0001 to 1 µM | 0.0001 to 1 µM | Cc1cc(C#Cc2cnc3[nH]cc(-c4ccc5ncn(C(C)(C)C)c5c4)c3n2)cc(C)n1 [P-282, 7-(3-tert-butylbenzimidazol-5-yl)-2-[2-(2,6-dimethyl-4-pyridyl)ethynyl]-5H-pyrrolo[2,3-b]pyrazine]
0.0001 to 1 µM | 0.0001 to 1 µM | O=S1(=O)CCCN1c1cc(-c2cnc3[nH]cc(-c4ccc5ncn(C6CCCNC6)c5c4)c3n2)ccn1 (centres unmarked) [P-295, 2-[4-[7-[3-(3-piperidyl)benzimidazol-5-yl]-5H-pyrrolo[2,3-b]pyrazin-2-yl]-2-pyridyl]-1,2-thiazolidine 1,1-dioxide]
0.0001 to 1 µM | 0.0001 to 1 µM | Cc1ncc(C#Cc2cnc3[nH]cc(-c4ccc5ncn(C(C)(C)C)c5c4)c3c2)cn1 [P-383, 1-tert-butyl-6-[5-[2-(2-methylpyrimidin-5-yl)ethynyl]-1H-pyrrolo[2,3-b]pyridin-3-yl]benzimidazole]
0.0001 to 1 µM | 0.0001 to 1 µM | CC(C)(C)n1cnc2ccc(-c3c[nH]c4ncc(-c5cccc(N6CCCCC6)c5)nc34)cc21 [P-336, 7-(3-tert-butylbenzimidazol-5-yl)-2-[3-(1-piperidyl)phenyl]-5H-pyrrolo[2,3-b]pyrazine]
0.0001 to 1 µM | 0.0001 to 1 µM | CCN1CCN(c2cc(-c3cnc4[nH]cc(-c5ccc6ncn(C(C)(C)C)c6c5)c4n3)ccn2)CC1 [P-328, 7-(3-tert-butylbenzimidazol-5-yl)-2-[2-(4-ethylpiperazin-1-yl)-4-pyridyl]-5H-pyrrolo[2,3-b]pyrazine]
0.0001 to 1 µM | 0.0001 to 1 µM | CN1CCN(c2ccc(-c3cnc4[nH]cc(-c5ccc6ncn(C7CCCNC7)c6c5)c4n3)cc2)CC1 (centres unmarked) [P-344, 2-[4-(4-methylpiperazin-1-yl)phenyl]-7-[3-(3-piperidyl)benzimidazol-5-yl]-5H-pyrrolo[2,3-b]pyrazine]
0.0001 to 1 µM | 0.0001 to 1 µM | CC(C)(C)n1cnc2ccc(-c3n[nH]c4ncc(-c5ccnc(N6CCOCC6)c5)cc34)cc21 [P-297, 4-[4-[3-(3-tert-butylbenzimidazol-5-yl)-1H-pyrazolo[3,4-b]pyridin-5-yl]-2-pyridyl]morpholine]
0.0001 to 1 µM | 0.0001 to 1 µM | CC(C)(C)n1cnc2ccc(-c3c[nH]c4ncc(-c5cnc(N6CCC(F)(F)CC6)nc5)nc34)cc21 [P-357, 7-(3-tert-butylbenzimidazol-5-yl)-2-[2-(4,4-difluoro-1-piperidyl)pyrimidin-5-yl]-5H-pyrrolo[2,3-b]pyrazine]
0.0001 to 1 µM | 0.0001 to 1 µM | CCN1CCN(c2cc(-c3cnc4[nH]cc(-c5ccc6ncn(C7CCCNC7)c6c5)c4n3)ccn2)CC1 (centres unmarked) [P-327, 2-[2-(4-ethylpiperazin-1-yl)-4-pyridyl]-7-[3-(3-piperidyl)benzimidazol-5-yl]-5H-pyrrolo[2,3-b]pyrazine]
0.0001 to 1 µM | 0.0001 to 1 µM | Cc1cc(C#Cc2cnc3[nH]cc(-c4ccc5ncn(C6CCCNC6)c5c4)c3n2)cc(C)n1 (centres unmarked) [P-283, 2-[2-(2,6-dimethyl-4-pyridyl)ethynyl]-7-[3-(3-piperidyl)benzimidazol-5-yl]-5H-pyrrolo[2,3-b]pyrazine]
0.0001 to 1 µM | 0.0001 to 1 µM | CC(C)(C)n1cnc2ccc(-c3c[nH]c4ncc(-c5cccc(N6CCOCC6)c5)cc34)cc21 [P-316, 4-[3-[3-(3-tert-butylbenzimidazol-5-yl)-1H-pyrrolo[2,3-b]pyridin-5-yl]phenyl]morpholine]
0.0001 to 1 µM | 0.0001 to 1 µM | CC(C)(O)c1ncc(-c2cnc3[nH]cc(-c4ccc5ncn(C(C)(C)C)c5c4)c3n2)cn1 [P-380, 2-[5-[7-(3-tert-butylbenzimidazol-5-yl)-5H-pyrrolo[2,3-b]pyrazin-2-yl]pyrimidin-2-yl]propan-2-ol]
0.0001 to 1 µM | 0.0001 to 1 µM | CCN1CCN(c2cccc(-c3cnc4[nH]cc(-c5ccc6ncn(C(C)(C)C)c6c5)c4n3)c2)CC1 [P-330, 7-(3-tert-butylbenzimidazol-5-yl)-2-[3-(4-ethylpiperazin-1-yl)phenyl]-5H-pyrrolo[2,3-b]pyrazine]
0.0001 to 1 µM | 0.0001 to 1 µM | CCN1CCN(c2ccc(-c3cnc4[nH]cc(-c5ccc6ncn(C(C)(C)C)c6c5)c4n3)cn2)CC1 [P-365, 7-(3-tert-butylbenzimidazol-5-yl)-2-[6-(4-ethylpiperazin-1-yl)-3-pyridyl]-5H-pyrrolo[2,3-b]pyrazine]
0.0001 to 1 µM | 0.0001 to 1 µM | CCN1CCN(c2cccc(-c3cnc4[nH]cc(-c5ccc6ncn(C7CCCNC7)c6c5)c4n3)c2)CC1 (centres unmarked) [P-329, 2-[3-(4-ethylpiperazin-1-yl)phenyl]-7-[3-(3-piperidyl)benzimidazol-5-yl]-5H-pyrrolo[2,3-b]pyrazine]
0.0001 to 1 µM | 0.0001 to 1 µM | c1cc(N2CCCCC2)ccc1-c1cnc2[nH]cc(-c3ccc4ncn(C5CCCNC5)c4c3)c2n1 (centres unmarked) [P-346, 7-[3-(3-piperidyl)benzimidazol-5-yl]-2-[4-(1-piperidyl)phenyl]-5H-pyrrolo[2,3-b]pyrazine]
0.0001 to 1 µM | 0.0001 to 1 µM | CC(C)(C)n1cnc2ccc(-c3n[nH]c4ncc(-c5cccc(N6CCCS6(=O)=O)c5)cc34)cc21 [P-296, 2-[3-[3-(3-tert-butylbenzimidazol-5-yl)-1H-pyrazolo[3,4-b]pyridin-5-yl]phenyl]-1,2-thiazolidine 1,1-dioxide]
0.0001 to 1 µM | 0.0001 to 1 µM | CC(C)(C)n1cnc2ccc(-c3c[nH]c4ncc(-c5ccc(N6CCCS6(=O)=O)cc5)cc34)cc21 [P-320, 2-[4-[3-(3-tert-butylbenzimidazol-5-yl)-1H-pyrrolo[2,3-b]pyridin-5-yl]phenyl]-1,2-thiazolidine 1,1-dioxide]
0.0001 to 1 µM | 0.0001 to 1 µM | c1cc(-c2cnc3[nH]cc(-c4ccc5ncn(C6CCCNC6)c5c4)c3n2)cc(N2CCCCC2)n1 (centres unmarked) [P-339, 7-[3-(3-piperidyl)benzimidazol-5-yl]-2-[2-(1-piperidyl)-4-pyridyl]-5H-pyrrolo[2,3-b]pyrazine]
0.0001 to 1 µM | 0.0001 to 1 µM | c1nc(N2CCOCC2)ncc1-c1cnc2[nH]cc(-c3ccc4ncn(C5CCCNC5)c4c3)c2c1 (centres unmarked) [P-277, 4-[5-[3-[3-(3-piperidyl)benzimidazol-5-yl]-1H-pyrrolo[2,3-b]pyridin-5-yl]pyrimidin-2-yl]morpholine]
0.0001 to 1 µM | 0.0001 to 1 µM | CN1CCN(c2cccc(-c3cnc4[nH]cc(-c5ccc6ncn(C(C)(C)C)c6c5)c4n3)c2)CC1 [P-331, 7-(3-tert-butylbenzimidazol-5-yl)-2-[3-(4-methylpiperazin-1-yl)phenyl]-5H-pyrrolo[2,3-b]pyrazine]
